# According to article PMC13544220, “Glycemic and bodyweight effects of GIPR coding variation reflect differences in surface expression and intrinsic functional impairment” (Science Advances, 2026):
# Substitutions are numbered along the chain they refer to. Peptide text beside a SMILES is read from it. * marks the point of attachment. Cbz = O=C(OCc1ccccc1)*; OtBu = CC(C)(C)O*
# Tests used:
# [1] = test system: wild-type and variant SNAP-GIPR in INS-1 cells; assay: Proteasomal inhibition, total SNAP-GIPR in INS-1 cells; type: cell-based, human; details: for total SNAP-GIPR level with PSI: 100 μM, 4 h, INS-1, scaled to experimental average without PSI; for total SNAP-GIPR level after proteasomal inhibition: INS-1, 100 μM, 4 hours
# Protocol: INS-1 cells were reverse transfected with the GIPR variant or wild-type plasmids in 96-well, clear-bottom, black microplates precoated with poly-D-lysine. All variants were tested in parallel on each occasion to control for transfection efficiency differences between experiments. Twelve hours posttransfection, the cells were treated with either vehicle or Proteasome Inhibitor I (Merck) for 4 hours. Following this, the cells were labeled with the cell-permeable SNAP-tag probe BG-OG ([29]) for 10 min at 37°C to label total SNAP. Cells were then imaged as in the “Assessment of surface GIPR expression by SNAP-tag labeling in cell lines” section to establish total GIPR labeling (surface and intracellular). Images were analyzed as in the “Assessment of surface GIPR expression by SNAP-tag labeling in cell lines” section.
# [2] = test system: wild-type and variant SNAP-GIPR in INS-1 cells; assay: Bafilomycin A1 effect on surface SNAP-GIPR in INS-1 cells; type: cell-based, human; details: inhibition of constitutive GIPR down-regulation; fig. S2A
# Protocol: Twenty-four hours before the experiment, AD293 or INS-1 cells were reverse transfected with GIPR variant or wild-type plasmids using Lipofectamine 2000 in 96-well, clear-bottom, black microplates precoated with poly-D-lysine. All variants were tested in parallel on each occasion to control for transfection efficiency differences between experiments.
# hGIPR WT = target: T1, hGIPR WT (Homo sapiens, UniProt P48546); assay: cAMP accumulation in HEK293 cells, untagged GIPR (Eli Lilly); type: cell-based; details: HEK-293, untagged, 0.1% casein, (SEM, n), n=4
# T1 construct: expressed in transfected cells; host or cells: HEK293, transient
# T1 sequence (P48546 22-466): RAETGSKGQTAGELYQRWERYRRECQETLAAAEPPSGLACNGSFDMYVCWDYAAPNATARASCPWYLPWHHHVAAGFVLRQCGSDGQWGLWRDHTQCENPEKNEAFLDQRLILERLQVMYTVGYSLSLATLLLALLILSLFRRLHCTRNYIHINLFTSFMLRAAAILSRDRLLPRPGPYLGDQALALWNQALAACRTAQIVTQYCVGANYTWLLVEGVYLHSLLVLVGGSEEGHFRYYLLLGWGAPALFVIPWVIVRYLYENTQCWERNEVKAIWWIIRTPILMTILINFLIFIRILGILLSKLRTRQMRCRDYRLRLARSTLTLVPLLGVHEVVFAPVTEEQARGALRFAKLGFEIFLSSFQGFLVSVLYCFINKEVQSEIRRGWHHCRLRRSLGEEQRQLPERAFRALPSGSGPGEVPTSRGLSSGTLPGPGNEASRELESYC
# [3] = target: T2, wild-type and variant SNAP-GIPR (Homo sapiens, UniProt P48546, E354Q); assay: cAMP concentration response (HTRF) in AD293 cells, SNAP-GIPR; type: cell-based; details: AD293, SNAP-GIPR E354Q, 0.1% BSA
# T2 construct: the endogenous GIPR signal peptide was removed and replaced with a SNAPf tag; host or cells: AD293 (adherent HEK293), transient transfection
# T2 sequence (P48546 22-466 E354Q): T1 sequence (P48546 22-466) with E333Q
# Protocol: (Imperial College London): 24 hours before the experiment, AD293 cells were reverse transfected with the GIPR variant or wild-type plasmids using Lipofectamine 2000 in 12-well plates. All variants were tested in parallel on each occasion to control for transfection efficiency differences between experiments. […] Data were fit using a three-parameter logistic model using GraphPad Prism 10.
# [4] = test system: membranes from untransfected HEK293 cells; assay: [125I]GIP(1-42)OH radioligand binding, untransfected control; parameters: species or system human; details: either assay condition
# Protocol: Radioligand binding to the GIPR variant receptors was performed using the assay procedure described in ([59]) with some slight modification in the buffer. […] A3782), and 25 mM Hepes (Gibco, catalog no. […] The assay was incubated overnight at 25°C and then centrifuged at 1000 rpm (Beckman Coulter, Avanti J-15R).
molecule,measurement,setting,value
CC[C@H](C)[C@H](NC(=O)OCc1ccccc1)C(=O)N[C@@H](CCC(=O)OC(C)(C)C)C(=O)N[C@@H](C)C(=O)N[C@H](C=O)CC(C)C [PSI] (Cbz-IE(OtBu)AL-aldehyde),total SNAP-GIPR level with PSI,"[1]; E288G, replicate 1",0.3892
same,total SNAP-GIPR level with PSI,"[1]; E288G, replicate 2",3.417
same,total SNAP-GIPR level with PSI,"[1]; E288G, replicate 3",2.001
same,total SNAP-GIPR level with PSI,"[1]; E288G, replicate 4",0.9026
same,total SNAP-GIPR level with PSI,"[1]; E288G, replicate 5",1.217
same,total SNAP-GIPR level with PSI,"[1]; E354Q, replicate 1",0.9055
same,total SNAP-GIPR level with PSI,"[1]; E354Q, replicate 2",0.737
same,total SNAP-GIPR level with PSI,"[1]; E354Q, replicate 3",1.364
same,total SNAP-GIPR level with PSI,"[1]; E354Q, replicate 4",0.8268
same,total SNAP-GIPR level with PSI,"[1]; E354Q, replicate 5",0.8316
same,total SNAP-GIPR level after proteasomal inhibition,[1]; E288G,significant increase in E288G levels
same,total SNAP-GIPR level after proteasomal inhibition,[1]; R190Q and R101H,numerically similar trends
same,total SNAP-GIPR level after proteasomal inhibition,[1]; wild-type and E354Q,unaffected by proteasomal inhibition
same,total SNAP-GIPR level with PSI,"[1]; R101H, replicate 1",0.131
same,total SNAP-GIPR level with PSI,"[1]; R101H, replicate 2",0.3704
same,total SNAP-GIPR level with PSI,"[1]; R101H, replicate 3",0.7801
same,total SNAP-GIPR level with PSI,"[1]; R101H, replicate 4",0.651
same,total SNAP-GIPR level with PSI,"[1]; R101H, replicate 5",0.8591
same,total SNAP-GIPR level with PSI,"[1]; R190Q, replicate 1",0.3291
same,total SNAP-GIPR level with PSI,"[1]; R190Q, replicate 2",0.5524
same,total SNAP-GIPR level with PSI,"[1]; R190Q, replicate 3",1.18
same,total SNAP-GIPR level with PSI,"[1]; R190Q, replicate 4",0.5932
same,total SNAP-GIPR level with PSI,"[1]; R190Q, replicate 5",0.77
same,total SNAP-GIPR level with PSI,"[1]; WT, replicate 1",4.2848
same,total SNAP-GIPR level with PSI,"[1]; WT, replicate 2",3.795
same,total SNAP-GIPR level with PSI,"[1]; WT, replicate 3",3.454
same,total SNAP-GIPR level with PSI,"[1]; WT, replicate 4",1.746
same,total SNAP-GIPR level with PSI,"[1]; WT, replicate 5",2.287
CO/C1=C\C(C)=C\[C@@H](C)[C@@H](O)[C@@H](C)C/C(C)=C/C=C/[C@H](OC)[C@@H]([C@@H](C)[C@@H](O)[C@H](C)[C@@]2(O)C[C@@H](O)[C@H](C)[C@@H](C(C)C)O2)OC1=O [bafilomycin A1],rescue of surface expression of GIPR variants,[2],did not lead to disproportionate “rescue”
CC[C@H](C)[C@H](NC(=O)[C@H](CC(C)C)NC(=O)[C@H](Cc1c[nH]c2ccccc12)NC(=O)[C@H](CCC(N)=O)NC(=O)[C@@H](NC(=O)[C@H](Cc1ccccc1)NC(=O)[C@H](C)NC(=O)[C@H](CCCCNC(=O)COCCOCCNC(=O)COCCOCCNC(=O)CC[C@H](NC(=O)CCCCCCCCCCCCCCCCCCC(=O)O)C(=O)O)NC(=O)[C@H](CCC(N)=O)NC(=O)[C@H](C)NC(=O)[C@@H](NC(=O)[C@H](CCCCN)NC(=O)[C@H](CC(=O)O)NC(=O)[C@H](CC(C)C)NC(=O)C(C)(C)NC(=O)[C@@H](NC(=O)[C@H](CO)NC(=O)[C@H](Cc1ccc(O)cc1)NC(=O)[C@H](CC(=O)O)NC(=O)[C@H](CO)NC(=O)[C@@H](NC(=O)[C@H](Cc1ccccc1)NC(=O)[C@@H](NC(=O)CNC(=O)[C@H](CCC(=O)O)NC(=O)C(C)(C)NC(=O)[C@@H](N)Cc1ccc(O)cc1)[C@@H](C)O)[C@@H](C)O)[C@@H](C)CC)[C@@H](C)CC)C(C)C)C(=O)N[C@@H](C)C(=O)NCC(=O)NCC(=O)N1CCC[C@H]1C(=O)N[C@@H](CO)C(=O)N[C@@H](CO)C(=O)NCC(=O)N[C@@H](C)C(=O)N1CCC[C@H]1C(=O)N1CCC[C@H]1C(=O)N1CCC[C@H]1C(=O)N[C@@H](CO)C(N)=O [tirzepatide],Emax,hGIPR WT,90.6%
same,cAMP signaling (∆LogEmax/EC50),[3],increased cAMP signaling
[125I]GIP(1-42)OH: radioligand [125I]GIP(1-42)OH (Revvity),"specific binding, untransfected HEK293 membranes",[4],no significant specific binding detected
